US6479435B1, “Diaryl ethers and processes for their preparation and herbicidal and desiccant compositions containing them” (ISK Americas Incorporated, priority 1997, dated 2002)

Tests used:
Format in all cases: in vivo
[1] = test system: Johnsongrass (Sorghum halepense, SORHA); assay: Pre-emerge greenhouse herbicide test, phytotoxicity rating; conditions: 14 days after application, rating scale 0-100
Summary of the method: (§1)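 Seeds sown in sandy loam mix one day before track-sprayer application of compounds in acetone at 125–1000 g ai/ha (187 l/ha), then surface-watered to incorporate and bottom-watered. Visual rating 14 days after application on a 0–100 scale (0 = no damage, 100 = all plants dead).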

[2] = test system: barnyardgrass (Echinochloa crusgalli, ECHCG); assay: as above; conditions: 14 days after application, rating scale 0-100
Summary of the method: as §1

[3] = test system: common ragweed (Ambrosia artemisiifolia L., AMBEL); assay: as above; conditions: 14 days after application, rating scale 0-100
Summary of the method: as §1

[4] = test system: green foxtail (Setaria viridis, SETVI); assay: as above; conditions: 14 days after application, rating scale 0-100
Summary of the method: as §1

[5] = test system: ivyleaf morningglory (Ipomoea hederacea, IPOHE); assay: as above; conditions: 14 days after application, rating scale 0-100
Summary of the method: as §1

[6] = test system: lambsquarters (Chenopodium album, CHEAL); assay: as above; conditions: 14 days after application, rating scale 0-100
Summary of the method: as §1

[7] = test system: large crabgrass (Digitaria sanguinalis, DIGSA); assay: as above; conditions: 14 days after application, rating scale 0-100
Summary of the method: as §1

[8] = test system: redroot pigweed (Amaranthus retroflexus, AMARE); assay: as above; conditions: 14 days after application, rating scale 0-100
Summary of the method: as §1

[9] = test system: sicklepod (Cassia obtusifolia, CASOB); assay: as above; conditions: 14 days after application, rating scale 0-100
Summary of the method: as §1

[10] = test system: velvetleaf (Abutilon theophrasti, ABUTH); assay: as above; conditions: 14 days after application, rating scale 0-100
Summary of the method: as §1

[11] = test system: field corn (Zea mays L., var. Dekalb 535, CORN); assay: Pre-emerge greenhouse test, crop damage rating; conditions: 14 days after application, rating scale 0-100
Summary of the method: as §1

[12] = test system: upland rice (Oryza sp., var.Tebonnet, RICE); assay: Pre-emerge greenhouse test, crop damage rating; conditions: 14 days after application, rating scale 0-100
Summary of the method: as §1

[13] = test system: soybean (Glycine max L., var. Pella 86, SOY); assay: Pre-emerge greenhouse test, crop damage rating; conditions: 14 days after application, rating scale 0-100
Summary of the method: as §1

[14] = test system: common ragweed (Ambrosia artemisiifolia L., AMBEL); assay: Post-emerge greenhouse herbicide test, phytotoxicity rating; conditions: 14 days after application
Summary of the method: (§2)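 Compounds in acetone with 0.25% v/v non-ionic surfactant were track-sprayed at 187 l/ha over plants at the 2-3 leaf stage, at 63 to 1000 g ai/ha. Pots were bottom-watered. Injury was scored visually 14 days later on a 0-100 scale, where 0 is no damage and 100 is complete plant death.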

[15] = test system: Johnsongrass (Sorghum halepense, SORHA); assay: as above; conditions: 14 days after application
Summary of the method: as §2

[16] = test system: barnyardgrass (Echinochloa crusgalli, ECHCG); assay: as above; conditions: 14 days after application
Summary of the method: as §2

[17] = test system: green foxtail (Setaria viridis, SETVI); assay: as above; conditions: 14 days after application
Summary of the method: as §2

[18] = test system: ivyleaf morningglory (Ipomoea hederacea, IPOHE); assay: as above; conditions: 14 days after application
Summary of the method: as §2

[19] = test system: lambsquarters (Chenopodium album, CHEAL); assay: as above; conditions: 14 days after application
Summary of the method: as §2

[20] = test system: large crabgrass (Digitaria sanguinalis, DIGSA); assay: as above; conditions: 14 days after application
Summary of the method: as §2

[21] = test system: redroot pigweed (Amaranthus retroflexus, AMARE); assay: as above; conditions: 14 days after application
Summary of the method: as §2

[22] = test system: sicklepod (Cassia obtusifolia, CASOB); assay: as above; conditions: 14 days after application
Summary of the method: as §2

[23] = test system: velvetleaf (Abutilon theophrasti, ABUTH); assay: as above; conditions: 14 days after application
Summary of the method: as §2

[24] = test system: field corn (Zea mays L., var. Dekalb 535, CORN); assay: Post-emerge greenhouse test, crop damage rating; conditions: 14 days after application
Summary of the method: as §2

[25] = test system: upland rice (Oryza sp., var.Tebonnet, RICE); assay: Post-emerge greenhouse test, crop damage rating; conditions: 14 days after application
Summary of the method: as §2

[26] = test system: soybean (Glycine max L., var. Pella 86, SOY); assay: Post-emerge greenhouse test, crop damage rating; conditions: 14 days after application
Summary of the method: as §2

O=c1n(CCCF)nnn1-c1cc(Oc2ncc(Br)cn2)c(Cl)cc1F [Compound 6-16]
phytotoxicity rating SORHA ([1]; 125 g ai/ha): 40
phytotoxicity rating SORHA ([1]; 500 g ai/ha): 80
phytotoxicity rating ECHCG ([2]; 125 g ai/ha): 0
phytotoxicity rating ECHCG ([2]; 500 g ai/ha): 90
phytotoxicity rating AMBEL ([3]; 125 g ai/ha): 0
phytotoxicity rating AMBEL ([3]; 500 g ai/ha): 70
phytotoxicity rating SETVI ([4]; 125 g ai/ha): 80
phytotoxicity rating SETVI ([4]; 500 g ai/ha): 100
phytotoxicity rating IPOHE ([5]; 125 g ai/ha): 50
phytotoxicity rating IPOHE ([5]; 500 g ai/ha): 30
phytotoxicity rating CHEAL ([6]; 125 g ai/ha): 100
phytotoxicity rating CHEAL ([6]; 500 g ai/ha): 100
phytotoxicity rating DIGSA ([7]; 125 g ai/ha): 80
phytotoxicity rating DIGSA ([7]; 500 g ai/ha): 100
phytotoxicity rating AMARE ([8]; 125 g ai/ha): 100
phytotoxicity rating AMARE ([8]; 500 g ai/ha): 100
phytotoxicity rating CASOB ([9]; 125 g ai/ha): 50
phytotoxicity rating CASOB ([9]; 500 g ai/ha): 30
phytotoxicity rating ABUTH ([10]; 125 g ai/ha): 100
phytotoxicity rating ABUTH ([10]; 500 g ai/ha): 100
crop damage rating CORN ([11]; 125 g ai/ha): 0
crop damage rating CORN ([11]; 500 g ai/ha): 15
crop damage rating RICE ([12]; 125 g ai/ha): 0
crop damage rating RICE ([12]; 500 g ai/ha): 50
crop damage rating SOY ([13]; 125 g ai/ha): 0
crop damage rating SOY ([13]; 500 g ai/ha): 10
AMBEL phytotoxicity rating (0-100) ([14]; 63 g al/ha): 15
AMBEL phytotoxicity rating (0-100) ([14]; 500 g al/ha): 20
SORHA phytotoxicity rating (0-100) ([15]; 63 g al/ha): 0
SORHA phytotoxicity rating (0-100) ([15]; 500 g al/ha): 20
ECHCG phytotoxicity rating (0-100) ([16]; 63 g al/ha): 0
ECHCG phytotoxicity rating (0-100) ([16]; 500 g al/ha): 30
SETVI phytotoxicity rating (0-100) ([17]; 63 g al/ha): 20
SETVI phytotoxicity rating (0-100) ([17]; 500 g al/ha): 50
IPOHE phytotoxicity rating (0-100) ([18]; 63 g al/ha): 95
IPOHE phytotoxicity rating (0-100) ([18]; 500 g al/ha): 95
CHEAL phytotoxicity rating (0-100) ([19]; 63 g al/ha): 80
CHEAL phytotoxicity rating (0-100) ([19]; 500 g al/ha): 100
DIGSA phytotoxicity rating (0-100) ([20]; 63 g al/ha): 0
DIGSA phytotoxicity rating (0-100) ([20]; 500 g al/ha): 0
AMARE phytotoxicity rating (0-100) ([21]; 63 g al/ha): 70
AMARE phytotoxicity rating (0-100) ([21]; 500 g al/ha): 100
CASOB phytotoxicity rating (0-100) ([22]; 63 g al/ha): 0
CASOB phytotoxicity rating (0-100) ([22]; 500 g al/ha): 30
ABUTH phytotoxicity rating (0-100) ([23]; 63 g al/ha): 100
ABUTH phytotoxicity rating (0-100) ([23]; 500 g al/ha): 100
CORN crop damage rating (0-100) ([24]; 63 g al/ha): 10
CORN crop damage rating (0-100) ([24]; 500 g al/ha): 20
RICE crop damage rating (0-100) ([25]; 63 g al/ha): 30
RICE crop damage rating (0-100) ([25]; 500 g al/ha): 40
SOY crop damage rating (0-100) ([26]; 63 g al/ha): 40
SOY crop damage rating (0-100) ([26]; 500 g al/ha): 60

O=C1C2CCCCN2C(=O)N1c1cc(Oc2ncccc2C(F)(F)F)c(Cl)cc1F (stereo not drawn) [Compound 8-4]
phytotoxicity rating SORHA ([1]; 500 g ai/ha): 70
phytotoxicity rating ECHCG ([2]; 125 g ai/ha): 10
phytotoxicity rating ECHCG ([2]; 500 g ai/ha): 30
phytotoxicity rating AMBEL ([3]; 125 g ai/ha): 20
phytotoxicity rating AMBEL ([3]; 500 g ai/ha): 0
phytotoxicity rating SETVI ([4]; 125 g ai/ha): 50
phytotoxicity rating SETVI ([4]; 500 g ai/ha): 100
phytotoxicity rating IPOHE ([5]; 125 g ai/ha): 0
phytotoxicity rating IPOHE ([5]; 500 g ai/ha): 0
phytotoxicity rating CHEAL ([6]; 125 g ai/ha): 70
phytotoxicity rating CHEAL ([6]; 500 g ai/ha): 100
phytotoxicity rating DIGSA ([7]; 125 g ai/ha): 30
phytotoxicity rating DIGSA ([7]; 500 g ai/ha): 90
phytotoxicity rating AMARE ([8]; 125 g ai/ha): 100
phytotoxicity rating AMARE ([8]; 500 g ai/ha): 100
phytotoxicity rating CASOB ([9]; 125 g ai/ha): 30
phytotoxicity rating CASOB ([9]; 500 g ai/ha): 90
phytotoxicity rating ABUTH ([10]; 125 g ai/ha): 100
phytotoxicity rating ABUTH ([10]; 500 g ai/ha): 100
crop damage rating CORN ([11]; 125 g ai/ha): 0
crop damage rating CORN ([11]; 500 g ai/ha): 0
crop damage rating RICE ([12]; 125 g ai/ha): 0
crop damage rating RICE ([12]; 500 g ai/ha): 30
crop damage rating SOY ([13]; 125 g ai/ha): 0
crop damage rating SOY ([13]; 500 g ai/ha): 0
AMBEL phytotoxicity rating (0-100) ([14]; 63 g al/ha): 0
AMBEL phytotoxicity rating (0-100) ([14]; 500 g al/ha): 0
SORHA phytotoxicity rating (0-100) ([15]; 500 g al/ha): 0
ECHCG phytotoxicity rating (0-100) ([16]; 63 g al/ha): 0
ECHCG phytotoxicity rating (0-100) ([16]; 500 g al/ha): 0
SETVI phytotoxicity rating (0-100) ([17]; 63 g al/ha): 10
SETVI phytotoxicity rating (0-100) ([17]; 500 g al/ha): 10
IPOHE phytotoxicity rating (0-100) ([18]; 63 g al/ha): 50
IPOHE phytotoxicity rating (0-100) ([18]; 500 g al/ha): 60
CHEAL phytotoxicity rating (0-100) ([19]; 63 g al/ha): 70
CHEAL phytotoxicity rating (0-100) ([19]; 500 g al/ha): 75
DIGSA phytotoxicity rating (0-100) ([20]; 63 g al/ha): 0
DIGSA phytotoxicity rating (0-100) ([20]; 500 g al/ha): 0
AMARE phytotoxicity rating (0-100) ([21]; 63 g al/ha): 60
AMARE phytotoxicity rating (0-100) ([21]; 500 g al/ha): 100
CASOB phytotoxicity rating (0-100) ([22]; 63 g al/ha): 20
CASOB phytotoxicity rating (0-100) ([22]; 500 g al/ha): 40
ABUTH phytotoxicity rating (0-100) ([23]; 63 g al/ha): 70
ABUTH phytotoxicity rating (0-100) ([23]; 500 g al/ha): 85
CORN crop damage rating (0-100) ([24]; 63 g al/ha): 5
CORN crop damage rating (0-100) ([24]; 500 g al/ha): 10
RICE crop damage rating (0-100) ([25]; 63 g al/ha): 0
RICE crop damage rating (0-100) ([25]; 500 g al/ha): 0
SOY crop damage rating (0-100) ([26]; 63 g al/ha): 20
SOY crop damage rating (0-100) ([26]; 500 g al/ha): 30
